Reference: patent publication US4129721A, “A-40104 antibiotics and process for production thereof” (priority 1977, dated 1978)
Converted amounts (≈) assume the structure as drawn.

Experiments:
[1] = test system: Hemophilus influenzae 259; assay: gradient-plate agar-dilution method; format: cell-based; conditions: Haemophilus influenzae
[2] = test system: Streptococcus pneumoniae Park I; assay: experimental bacterial infection in mice; format: in vivo; conditions: sc, read-out: ED50 × 2
[3] = test system: Pasteurella multocida (bovine); assay: standard in vitro tests, Pasteurella; format: cell-based
Text: (§1) Another veterinary aspect of this invention is the activity of the A-40104 antibiotics against Pasteurella species. P. multocida, for example, is a causative agent of respiratory infection in cattle, poultry, and swine. P. hemolytica is a major cause of respiratory disease in cattle. The activity of A-40104 factor A and its dihydro derivative against Pasteurella, as determined by standard in vitro tests, is summarized in Table X.

[4] = test system: Pasteurella hemolytica; assay: standard in vitro tests, Pasteurella; format: cell-based
Text: as §1

[5] = test system: Bacteroides fragilis 1936B; assay: standard agar-dilution test, anaerobic bacteria; format: cell-based; conditions: 2 h
[6] = test system: Hemophilus influenzae Brun; assay: gradient-plate agar-dilution method; format: cell-based; conditions: Haemophilus influenzae
[7] = test system: pathogenic organisms, particularly gram-positive bacteria; assay: antibacterial activity (general statement); format: cell-based
[8] = test system: Streptococcus sp. X-66 (Group D); assay: gradient-plate agar-dilution method; format: cell-based
[9] = test system: Peptostreptococcus intermedius; assay: standard agar-dilution test, anaerobic bacteria; format: cell-based; conditions: 2 h
[10] = test system: Peptococcus prevoti; assay: standard agar-dilution test, anaerobic bacteria; format: cell-based; conditions: read after 2 hours incubation
[11] = test system: Fusobacterium symbiosum; assay: standard agar-dilution test, anaerobic bacteria; format: cell-based; conditions: 2 h
[12] = test system: Bacteroides Melaninogenicus 2736; assay: standard agar-dilution test, anaerobic bacteria; format: cell-based; conditions: 2 h
[13] = solubility
[14] = test system: Staphylococcus aureus 3055; assay: standard disc-plate assay; format: cell-based; conditions: Penicillin-G susceptible, disc diameter 6.35 mm, read-out: Zone Diameters
Description: (§2) In one important aspect of this activity, the A-40104 antibiotics inhibit the growth of organisms which are resistant to other antibiotics. In Table IV the standard disc-plate-assay activity of A-40104 factors A and B against representative organisms is summarized. Activity is measured as the diameter (in mm) of the observed zone of inhibition; the diameter of disc used in each case was 6.35 mm.

[15] = test system: Diplococcus pneumoniae; assay: standard disc-plate assay; format: cell-based; conditions: Streptococcus pneumoniae, disc diameter 6.35 mm, read-out: Zone Diameters
Description: as §2

[16] = test system: Staphylococcus aureus 3074; assay: standard disc-plate assay; format: cell-based; conditions: Penicillin-G resistant, disc diameter 6.35 mm, read-out: Zone Diameters
Description: as §2

[17] = test system: Streptococcus sp. 9960; assay: standard disc-plate assay; format: cell-based; conditions: Group D, disc diameter 6.35 mm, read-out: Zone Diameters
Description: as §2

[18] = test system: Staphylococcus aureus 3130; assay: standard disc-plate assay; format: cell-based; conditions: Methicillin resistant, disc diameter 6.35 mm, read-out: Zone Diameters
Description: as §2

[19] = test system: Streptococcus pyogenes; assay: standard disc-plate assay; format: cell-based; conditions: Group A, disc diameter 6.35 mm, read-out: Zone Diameters
Description: as §2

[20] = test system: Bacteroides fragilis 111; assay: standard agar-dilution test, anaerobic bacteria; format: cell-based; conditions: Bacteroides fragilis, 111, 2 h
[21] = test system: bacteria of Table V; assay: gradient-plate agar-dilution method, series of in vitro tests; format: cell-based
[22] = test system: Staphylococcus aureus 3055; assay: experimental bacterial infection in mice; format: in vivo; conditions: Staphylococcus aureus, 3055, sc, sc, two doses, challenge 1,260 × LD50 (ip), read-out: ED50 × 2
[23] = test system: Hemophilus influenzae Laiv.; assay: gradient-plate agar-dilution method; format: cell-based; conditions: Haemophilus influenzae
[24] = test system: Streptococcus pyogenes C203; assay: experimental bacterial infection in mice; format: in vivo; conditions: sc, two doses, challenge 195 × LD50 (ip), read-out: ED50 × 2
[25] = test system: Neisseria gonorrhea Sand.; assay: gradient-plate agar-dilution method; format: cell-based
[26] = test system: Clostridium perfringens; assay: microbe, parasite or virus in culture; format: cell-based
[27] = electrometric titration; format: physicochemical; conditions: 66 percent aqueous dimethylformamide
[28] = test system: Bacteroides fragilis 1877; assay: standard agar-dilution test, anaerobic bacteria; format: cell-based; conditions: Bacteroides fragilis, 1877, 2 h
[29] = test system: Fusobacterium necrophorum; assay: standard agar-dilution test, anaerobic bacteria; format: cell-based; conditions: 2 h
[30] = test system: Streptococcus sp. 9960 (Group D); assay: gradient-plate agar-dilution method; format: cell-based
[31] = test system: powdery mildew; assay: powdery mildew control on bean and barley plants; format: in vivo
Text: The A-40104 antibiotics are also active against plant pathogens. […] The systemic activity of these antibiotics is especially advantageous in the control of plant pathogens or Spiroplasmas.

[32] = test system: Bacteroides corrodens; assay: standard agar-dilution test, anaerobic bacteria; format: cell-based; conditions: Eikenella corrodens, 2 h
[33] = test system: Hemophilus influenzae 260; assay: gradient-plate agar-dilution method; format: cell-based; conditions: Haemophilus influenzae
[34] = test system: Peptococcus asaccharolyticus; assay: standard agar-dilution test, anaerobic bacteria; format: cell-based; conditions: Peptoniphilus asaccharolyticus, 2 h
[35] = test system: Hemophilus influenzae Dick.; assay: gradient-plate agar-dilution method; format: cell-based; conditions: Haemophilus influenzae
[36] = test system: Neisseria gonorrhea; assay: gradient-plate agar-dilution method; format: cell-based
[37] = test system: Bacteroides vulgatis; assay: standard agar-dilution test, anaerobic bacteria; format: cell-based; conditions: 2 h
[38] = test system: Neisseria gonorrhea Lind.; assay: gradient-plate agar-dilution method; format: cell-based
[39] = test system: Hemophilus influenzae 251; assay: gradient-plate agar-dilution method; format: cell-based; conditions: Haemophilus influenzae

**Q.** Which results are given for C=CC1(C)CC(OC(=O)CO[C@@H]2OC[C@@H](O)[C@H](O)[C@H]2O)C2(C)C(C)CCC3(CCC(=O)C32)C(C)C1O (stereo partly drawn) [A-40104 factor A, β,D-xylopyranosyl acetal derivative of pleuromutilin]?
**A.** MIC [1]: 0.7 µg/mL (≈ 1.37 µM); ED50 [2]: 21.5 mg/kg; MIC [3]: 6.25 µg/mL (≈ 12.2 µM); MIC [4]: 25 µg/mL (≈ 49 µM); MIC [5]: 8 µg/mL (≈ 15.7 µM); MIC [6]: 2 µg/mL (≈ 3.92 µM); growth inhibition of pathogenic organisms [7]: inhibit the growth of certain pathogenic organisms, particularly gram-positive bacteria; MIC [8]: 0.5 µg/mL (≈ 0.979 µM); MIC [9]: ≤ 0.5 µg/mL; MIC [10]: ≤ 0.5 µg/mL; MIC [11]: 4 µg/mL (≈ 7.83 µM); MIC [12]: 4 µg/mL (≈ 7.83 µM); solubility in alcohols ([13]; alcohols such as methanol and ethanol): soluble in alcohols such as methanol and ethanol; solubility in chloroform ([13]; chloroform): partially soluble in chloroform; solubility in water ([13]; water): insoluble in water; zone of inhibition at 10 µg/disc ([14]; 10 mcg/disc): 27.2 mm; zone of inhibition at 100 µg/disc ([14]; 100 mcg/disc): 31.2 mm; zone of inhibition at 10 µg/disc ([15]; 10 mcg/disc): 14 mm; zone of inhibition at 100 µg/disc ([15]; 100 mcg/disc): 20 mm; zone of inhibition at 10 µg/disc ([16]; 10 mcg/disc): 25.4 mm; zone of inhibition at 100 µg/disc ([16]; 100 mcg/disc): 29.2 mm; zone of inhibition at 10 µg/disc ([17]; 10 mcg/disc): 0 mm; zone of inhibition at 100 µg/disc ([17]; 100 mcg/disc): 8.7 mm; zone of inhibition at 10 µg/disc ([18]; 10 mcg/disc): 29.2 mm; zone of inhibition at 100 µg/disc ([18]; 100 mcg/disc): 34 mm; zone of inhibition at 10 µg/disc ([19]; 10 mcg/disc): 21 mm; zone of inhibition at 100 µg/disc ([19]; 100 mcg/disc): 27 mm; MIC [20]: 8 µg/mL (≈ 15.7 µM); comparison with ampicillin [21]: compares favorably with ampicillin; ED50 [22]: 15.7 mg/kg; MIC [23]: 4 µg/mL (≈ 7.83 µM); ED50 [24]: 3.6 mg/kg; MIC [25]: 0.07 µg/mL (≈ 0.137 µM); MIC [26]: 8 µg/mL (≈ 15.7 µM); titratable groups [27]: no titratable groups are present; MIC [28]: 8 µg/mL (≈ 15.7 µM); MIC [29]: ≤ 0.5 µg/mL; MIC [30]: 70 µg/mL (≈ 137 µM); control of powdery mildew ([31]; bean and barley plants, soil drench, 100 ppm): control of powdery mildew is obtained; activity against powdery mildew ([31]; foliar spray or soil drench): active against powdery mildew; MIC [32]: 8 µg/mL (≈ 15.7 µM); MIC [33]: 0.7 µg/mL (≈ 1.37 µM); MIC [34]: ≤ 0.5 µg/mL; MIC [35]: 2 µg/mL (≈ 3.92 µM); MIC [36]: 0.5 µg/mL (≈ 0.979 µM); MIC [37]: 4 µg/mL (≈ 7.83 µM); MIC [38]: 0.5 µg/mL (≈ 0.979 µM); MIC [39]: 0.7 µg/mL (≈ 1.37 µM)
